Patent publication EP4737449A1 (Changchun Genescience Pharmaceutical Co., Ltd., priority 2023, dated 2025)

What follows are compounds tested against T1, p53-Y220C mutant protein (Homo sapiens, UniProt P04637, Y220C) (assay: In vitro DNA binding activity assay (TR-FRET)). Conditions: concentration required to increase the binding activity of protein to DNA by 50%.
T1 construct: The recombinant Y220C p53 DBD protein with his-tag
Format: biochemical
Protocol: The activity of the compound to modulate the binding of the p53-Y220C mutant protein to DNA was detected using TR-FREt (Time-Resolved Fluorescence Resonance Energy Transfer). The recombinant Y220C p53 DBD protein with his-tag and the DNA sequence with biotin label were prepared firstly. Donor Eu(Europium)-SA(Streptavidin) can be bound to the DNA sequence through biotin, receptor for his antibody attached to alphaphycocyanin(APC, allophycocyanin), and his antibody can be bound to the Y220C p53 DBD protein with his-tag. When exposed to an excitation light with a wavelength of 340 nm, the donor Eu(Europium)-SA(Streptavidin) can emit fluorescence with a wavelength of 615 nm. If the donor and the receptor are close to each other, the donor will transfer part of the energy to the receptor and produce fluorescence with a wavelength of 665 nm. […] If there is no interaction, only 615 nm fluorescence is produced. • 1) Experimental steps • a. Adding 4 µL of dilute compound solution to each well of a 384-well microplate; • a. Adding 4 µL of 4X P53 working solution to each well of the 384-well microplate; • c. Sealing the 384-well microplate and equilibrating the system at room temperature for 60 min; • d. Adding 4 µl of biotin DNA solution to the 384-well microplate; • e. Adding 4 µl of 4X test solution (MAb Anti-6His-Eu and streptavidin-d2) to each well of the 384-well microplate; • f. Incubating overnight in the dark; and • g. Reading data of 665 nm and 615 nm wavelengths on the BMG multifunctional microplate reader. • 2) Data analysis • a. Calculating the ratio for each well (Ratio665 nm/615 nm-Ratiobackground); • b. Calculating the activity percentage (%activity) as follows: C = (Ave_Ac−Ave_Ba)/(Ave_Dc−Ave_Bd) [formula] R data = (A−Ave_Ba−CD)/(D−Ave_Bd)*(Ave_Dc−Ave_Bd) [formula] % Activity = R data/Ave_VC*100 [formula] • A: Fluorescence intensity of the sample at 665 nm; D: Fluorescence intensity of the sample at 615 nm; • Ba: Background fluorescence intensity of the culture plate at 665 nm; Bd: Background fluorescence intensity of the culture plate at 615 nm; • Dc: Background fluorescence intensity of HIS-E at 615 nm; Ac: Background fluorescence intensity of streptavidin-d2 at 665 nm); and • c. Calculating SC150 and plotting dose-effect curve
Compared to the absence of the compound of the present invention, the activation percentage of binding of the p53 mutant protein to DNA in the presence of the compound of the present invention is expressed as SC150, which indicates the concentration of the compound required to increase the DNA binding activity of the p53 mutant protein by 50%. The SC150 is calculated using Prism™.

| Compound | SC150 [nM] |
| --- | --- |
| COc1ccc(C(=O)NCC#Cc2nn3c(N[C@@H]4CCN(C)C[C@@H]4F)cccc3c2CC(F)(F)F)cn1 [Compound 266, N-(3-(7-{[(3S,4R)-3-fluoro-1-methylpiperidin-4-yl]amino}-3-(2,2,2-trifluoroethyl)pyrazolo[1,5-a]pyridin-2-yl)prop-2-yn-1-yl)-6-methoxynicotinamide] | 46 |
| CN1CC[C@@H](Nc2cccc3c(CC(F)(F)F)c(C#CCNC(=O)c4cnn(C5CCOCC5)c4)nn23)[C@@H](F)C1 [Compound 013, N-[3-(7-{[(3S,4R)-3-fluoro-1-methylpiperidin-4-yl]amino}-3-(2,2,2-trifluoroethyl)pyrazolo[1,5-a]pyridin-2-yl)prop-2-yn-1-yl]-1-((tetrahydro-2H-pyran-4-yl))-1H-pyrazole-4-carboxamide] | 7 |
| CN1CCC2(CC1)CC(Nc1cccc3c(CC(F)(F)F)c(C#CCNC(=O)c4cnn(C(C)(C)C)c4N)nn13)C2 [Compound 367] | 27 |
| CN1CC[C@@H](Nc2cccc3c(CC(F)(F)F)c(C#CCNC(=O)c4cnn(C5(C)CCOCC5)c4)nn23)[C@@H](F)C1 [Compound 014] | 13 |
| CC(n1cc(C(=O)NCC#Cc2nn3c(N[C@@H]4CCN(C)C[C@@H]4F)cccc3c2CC(F)(F)F)cn1)C(F)(F)F (stereo partly drawn) [Compound 029, N-[3-(7-{[(3S,4R)-3-fluoro-1-methylpiperidin-4-yl]amino}-3-(2,2,2-trifluoroethyl)pyrazolo[1,5-a]pyridin-2-yl)prop-2-yn-1-yl]-1-(1,1,1-trifluoroprop-2-yl)-1H-pyrazole-4-carboxamide] | 15 |
| CN1CC[C@@H](Nc2cccc3c(CC(F)(F)F)c(C#CCNC(=O)C4C5COCC54)nn23)[C@@H](F)C1 (stereo partly drawn) [Compound 240, N-[3-(7-{[(3S,4R)-3-fluoro-1-methylpiperidin-4-yl]amino}-3-(2,2,2-trifluoroethyl)pyrazolo[1,5-a]pyridin-2-yl)prop-2-yn-1-yl]-3-oxabicyclo[3.1.0]hexane-6-carboxamide] | 75 |
| CN1CC[C@@H](Nc2cccc3c(CC(F)(F)F)c(C#CCNC(=O)c4ccccn4)nn23)[C@@H](F)C1 [Compound 075, N-[3-(7-{[(3S,4R)-3-fluoro-1-methylpiperidin-4-yl]amino}-3-(2,2,2-trifluoroethyl)pyrazolo[1,5-a]pyridin-2-yl)prop-2-yn-1-yl]pyridine-2-carboxamide] | 95 |
| Cc1cc(N)c(C(=O)NCC#Cc2nn3c(N[C@@H]4CCN(C)C[C@@H]4F)cccc3c2CC(F)(F)F)cn1 [Compound 294, 4-amino-N-[3-(7-{[(3S,4R)-3-fluoro-1-methylpiperidin-4-yl]amino}-3-(2,2,2-trifluoroethyl)pyrazolo[1,5-a]pyridin-2-yl)prop-2-yn-1-yl]-6-methylnicotinamide] | 39 |
| COc1cccc(C(=O)NCC#Cc2nn3c(N[C@@H]4CCN(C)C[C@@H]4F)cccc3c2CC(F)(F)F)c1 [Compound 072, N-[3-(7-{[(3S,4R)-3-fluoro-1-methylpiperidin-4-yl]amino}-3-(2,2,2-trifluoroethyl)pyrazolo[1,5-a]pyridin-2-yl)prop-2-yn-1-yl]-3-methoxybenzamide] | 41 |
| CN1CCC(n2cc(C(=O)NCC#Cc3nn4c(N[C@@H]5CCN(C)C[C@@H]5F)cccc4c3CC(F)(F)F)cn2)CC1 [Compound 012, N-[3-(7-{[(3S,4R)-3-fluoro-1-methylpiperidin-4-yl]amino}-3-(2,2,2-trifluoroethyl)pyrazolo[1,5-a]pyridin-2-yl)prop-2-yn-1-yl]-1-(1-methylpiperidin-4-yl)-1H-pyrazole-4-carboxamide] | 4 |
| CN1CC[C@@H](Nc2cccc3c(CC(F)(F)F)c(C#CCNC(=O)c4cnn(C(F)(F)F)c4)nn23)[C@@H](F)C1 [Compound 024, N-[3-(7-{[(3S,4R)-3-fluoro-1-methylpiperidin-4-yl]amino}-3-(2,2,2-trifluoroethyl)pyrazolo[1,5-a]pyridin-2-yl)prop-2-yn-1-yl]-1-(trifluoromethyl)-1H-pyrazole-4-carboxamide] | 58 |
| Cc1ccc(C(=O)NCC#Cc2nn3c(N[C@@H]4CCN(C)C[C@@H]4F)cccc3c2CC(F)(F)F)cc1 [Compound 160, N-[3-(7-{[(3S,4R)-3-fluoro-1-methylpiperidin-4-yl]amino}-3-(2,2,2-trifluoroethyl)pyrazolo[1,5-a]pyridin-2-yl)prop-2-yn-1-yl]-4-methylbenzamide] | 84 |
| CN1CC[C@@H](Nc2cccc3c(CC(F)(F)F)c(C#CCNC(=O)c4cnn(C5CC5)c4)nn23)[C@@H](F)C1 [Compound 005, 1-cyclopropyl-N-[3-(7-{[(3S,4R)-3-fluoro-1-methylpiperidin-4-yl]amino}-3-(2,2,2-trifluoroethyl)pyrazolo[1,5-a]pyridin-2-yl)prop-2-yn-1-yl]-1H-pyrazole-4-carboxamide] | 16 |

Now from value to compound:

| SC150 [nM] | Compound |
| --- | --- |
| 56 | CCn1cc(C(=O)NCC#Cc2nn3c(N[C@@H]4CCN(C)C[C@@H]4F)cccc3c2CC(F)(F)F)c(Cl)n1 [Compound 344] |
| 74 | CN1CC[C@@H](Nc2cccc3c(CC(F)(F)F)c(C#CCNC(=O)c4cn(C)c(C(F)F)n4)nn23)[C@@H](F)C1 [Compound 309, 2-difluoromethyl-N-[3-(7-{[(3S,4R)-3-fluoro-1-methylpiperidin-4-yl]amino}-3-(2,2,2-trifluoroethyl)pyrazolo[1,5-a]pyridin-2-yl)prop-2-yn-1-yl]-1-methyl-1H-imidazole-4-carboxamide] |
| 35 | CN1CC[C@@H](Nc2cccc3c(CC(F)(F)F)c(C#CCNC(=O)c4cnn(C)n4)nn23)[C@@H](F)C1 [Compound 325, N-[3-(7-{[(3S,4R)-3-fluoro-1-methylpiperidin-4-yl]amino}-3-(2,2,2-trifluoroethyl)pyrazolo[1,5-a]pyridin-2-yl)prop-2-yn-1-yl]-2-methyl-2H-1,2,3-triazole-4-carboxamide] |
| 33 | CN1CC[C@@H](Nc2cccc3c(CC(F)(F)F)c(C#CCNC(=O)c4cccc(C(C)(C)O)c4)nn23)[C@@H](F)C1 [Compound 334, N-[3-(7-{[(3S,4R)-3-fluoro-1-methylpiperidin-4-yl]amino}-3-(2,2,2-trifluoroethyl)pyrazolo[1,5-a]pyridin-2-yl)prop-2-yn-1-yl)-3-(2-hydroxyprop-2-yl)benzamide] |
| 14 | CN1CC[C@@H](Nc2cccc3c(CC(F)(F)F)c(C#CCNC(=O)c4cnn(C5(O)CC5)c4)nn23)[C@@H](F)C1 [Compound 303, N-[3-(7-{[(3S,4R)-3-fluoro-1-methylpiperidin-4-yl]amino}-3-(2,2,2-trifluoroethyl)pyrazolo[1,5-a]pyridin-2-yl)prop-2-yn-1-yl]-1-(1-hydroxycyclopropyl)-1H-pyrazole-4-carboxamide] |
| 160 | Cc1cc(N[C@@H]2CCN(C)C[C@@H]2F)n2nc(C#CCNC(=O)c3cnn(C(C)(C)C)c3N)c(CC(F)(F)F)c2c1 [Compound 360, 5-amino-1-tert-butyl-N-[3-(7-{[(3S,4R)-3-fluoro-1-methylpiperidin-4-yl]amino}-5-methyl-3-(2,2,2-trifluoroethyl)pyrazolo[1,5-a]pyridin-2-yl)prop-2-yn-1-yl]-1H-pyrazole-4-carboxamide] |
| 28 | CCc1c(C#CCNC(=O)c2cnn(C(C)(C)C)c2N)nn2c(N[C@@H]3CCN(C)C[C@@H]3F)cccc12 [Compound 348, 5-amino-1-tert-butyl-N-[3-(3-ethyl-7-{[(3S,4R)-3-fluoro-1-methylpiperidin-4-yl]amino}-pyrazolo[1,5-a]pyridin-2-yl)prop-2-yn-1-yl]-1H-pyrazole-4-carboxamide] |
| 13 | CN1CC[C@@H](Nc2cccc3c(CC(F)(F)F)c(C#CCNC(=O)c4cn(C5CC5)nc4N)nn23)[C@@H](F)C1 [Compound 350, 3-amino-N-[3-(7-{[(3S,4R)-3-fluoro-1-methylpiperidin-4-yl]amino}-3-(2,2,2-trifluoroethyl)pyrazolo[1,5-a]pyridin-2-yl)prop-2-yn-1-yl]-1-(cyclopropyl)-1H-pyrazole-4-carboxamide] |
| 30 | CN1CCC(Nc2cccc3c(CC(F)(F)F)c(C#CCNC(=O)c4cnn(C(C)(C)C)c4N)nn23)C1 (stereo not shown) [Compound 366, 5-amino-1-tert-butyl-N-(3-(7-[(1-methylpyrrolidin-3-yl)amino]-3-(2,2,2-trifluoroethyl)pyrazolo[1,5-a]pyridin-2-yl)prop-2-yn-1-yl)-1H-pyrazole-4-carboxamide] |
